Test results from US9271978B2 (Zenith Epigenetics Corp., priority 2012, dated 2016).

Key:
Design in all cases: key: Active: Compounds with an IC50 value less than 30 μM were deemed to be active.; Not Active: Compounds with an IC50 value less than 30 μM were deemed to be active
[1] = system: c-myc; assay: Inhibition of c-myc expression in MV4-11 cells (mRNA, real-time PCR); format: cell-based; settings: Human AML MV4-11 cells, 3 h incubation
Procedure: MV4-11 cells (2.5×10^4 cells) were plated in 96 well U-bottom plates with test compound or DMSO (0.1%), and incubated for 3 h at 37° C. Cells were then harvested by centrifugation, lysed, and mRNA was isolated using the mRNA catcher plus kit (Invitrogen). Reverse transcription of the mRNA and duplex amplification of the c-myc and cyclophilin cDNAs was performed using the RNA Ultrasense kit (Invitrogen) and a ViiA7 real-time PCR machine (Applied Biosystems). IC50 values were determined from a dose response curve.

[2] = system: human AML MV-4-11 (CRL-9591) cells; assay: Inhibition of cell proliferation in MV4-11 cells; format: cell-based; settings: human AML MV-4-11 cells, 72 h; active = IC50 <30 μM
Procedure: MV4-11 cells: 96-well plates were seeded with 5×10^4 cells per well of exponentially growing human AML MV-4-11 (CRL-9591) cells and immediately treated with two-fold dilutions of test compounds, ranging from 30 μM to 0.2 μM. Triplicate wells were used for each concentration, as well as a media only and three DMSO control wells. The cells and compounds were incubated at 37° C., 5% CO2 for 72 h before adding 20 μL of the CellTiter Aqueous One Solution (Promega) to each well and incubating at 37° C., 5% CO2 for an additional 3-4 h. The absorbance was taken at 490 nm in a spectrophotometer and the percentage of proliferation relative to DMSO-treated cells was calculated after correction from the blank well. IC50 were calculated using the GraphPad Prism software.

[3] = system: hIL-6 mRNA; assay: Inhibition of hIL-6 mRNA transcription in U937 cells; format: cell-based, human; settings: LPS stimulation, active = IC50 <30 μM
Procedure: In this example, hIL-6 mRNA in tissue culture cells was quantitated to measure the transcriptional inhibition of hIL-6 when treated with a compound of the present disclosure.
A human leukemic monocyte lymphoma cell line (U937) was plated (3.2×10^4 cells per well) in a 96-well plate in […] RPMI-1640 containing 10% FBS and penicillin/streptomycin, and differentiated into macrophages for 3 days in 60 ng/mL PMA ([…]) at 37° C. in 5% CO2 prior to the addition of the compound of interest. The cells were pretreated for 1 h with the test compound prior to stimulation with 1 ug/mL lipopolysaccharide from Escherichia coli. The cells were incubated at 37° C. for 3 h before the cells were harvested. At time of harvest, the spent media was removed from the cells and the cells were rinsed in […] PBS. Cell lysis solution (70 μL) was added the cells in each well and incubated for 5-10 min at room temperature, to allow for complete cell lysis and detachment. mRNA was then prepared using the “mRNA Catcher PLUS plate” (Invitrogen), according to the protocol supplied. After the last wash, as much wash buffer as possible was aspirated without allowing the wells to dry. Elution buffer (E3, 70 μL) was then added to each well. mRNA was then eluted by incubating the mRNA Catcher PLUS plate with Elution Buffer for 5 min at 68° C. and then immediately placing the plate on ice.
The eluted mRNA isolated was then used in a one-step quantitative real-time PCR reaction, using components of the Ultra Sense Kit together with Applied Biosystems primer-probe mixes. Real-time PCR data was analyzed, normalizing the Ct values for hIL-6 to an internal control, prior to determining the fold induction of each unknown sample, relative to the control.

[4] = target: T1, Brd4 bromodomain 1 (BRD4(1)) (Homo sapiens, UniProt O60885); assay: Inhibition of tetra-acetylated histone H4 binding to Brd4 bromodomain 1 (TR-FRET); settings: tetra-acetylated histone H4 peptide, active = IC50 <30 μM
T1 construct: Illustrative results with the first bromodomain of Brd4; made in house; host or cells: E. coli BL21 (DE3)
Summary of the method: (§1)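 IC50 values come from dose-response curves of the 665 nm to 620 nm TR-FRET signal decrease, measured after 2 h at room temperature. Reactions contained 200 nM E. coli-expressed His-tagged bromodomain, 25-50 nM biotinylated tetra-acetylated H4 peptide, Eu-streptavidin plus XL665 anti-His antibody, with 30 mM HEPES pH 7.4, 320 mM KF and 0.2% DMSO.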

[5] = target: T2, second bromodomain of Brd2 (BRD2(2)) (Homo sapiens, UniProt P25440); assay: Inhibition of tetra-acetylated histone H4 binding to Brd2 bromodomain 2 (TR-FRET); settings: tetra-acetylated histone H4 peptide, active = IC50 <30 μM
T2 construct: made in house; host or cells: E. coli BL21 (DE3)
T2 sequence (P25440 344-453 limits assumed): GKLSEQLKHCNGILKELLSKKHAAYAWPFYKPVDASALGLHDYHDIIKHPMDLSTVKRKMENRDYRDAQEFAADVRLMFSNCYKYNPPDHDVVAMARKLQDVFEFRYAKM
Summary of the method: as §1

Cc1noc(C)c1-c1cc(N)c(=O)n(Cc2ccc(N3CCC3)cc2)c1 [Example 237, 3-Amino-1-(4-(azetidin-1-yl)benzyl)-5-(3,5-dimethylisoxazol-4-yl)pyridin-2(1H)-one]
Active: c-myc activity (IC50 <30 μM) [1] | Cell Proliferation activity (IC50 <30 μM) [2] | IL-6 activity (IC50 <30 μM) [3] | FRET activity (IC50 <30 μM) BRD4(1) [4]

Cc1noc(C)c1-c1cc(N)c(=O)n(Cc2c[nH]c3ccccc23)c1 [Example 270, 1-((1H-indol-3-yl)methyl)-3-amino-5-(3,5-dimethylisoxazol-4-yl)pyridin-2(1H)-one]
Active: c-myc activity (IC50 <30 μM) [1] | Cell Proliferation activity (IC50 <30 μM) [2] | IL-6 activity (IC50 <30 μM) [3] | FRET activity (IC50 <30 μM) BRD4(1) [4]

Cc1noc(C)c1-c1cc(N)c(=O)n(Cc2ncccc2Cl)c1 [Example 254, 3-amino-1-((3-chloropyridin-2-yl)methyl)-5-(3,5-dimethylisoxazol-4-yl)pyridin-2(1H)-one]
Active: c-myc activity (IC50 <30 μM) [1] | Cell Proliferation activity (IC50 <30 μM) [2] | IL-6 activity (IC50 <30 μM) [3] | FRET activity (IC50 <30 μM) BRD4(1) [4]

Cc1noc(C)c1-c1cc(N)c(=O)n(Cc2ccc(C#N)c(Br)c2)c1 [Example 273, 4-((3-amino-5-(3,5-dimethylisoxazol-4-yl)-2-oxopyridin-1(2H)-yl)methyl)-2-bromobenzonitrile]
Active: c-myc activity (IC50 <30 μM) [1] | Cell Proliferation activity (IC50 <30 μM) [2] | IL-6 activity (IC50 <30 μM) [3] | FRET activity (IC50 <30 μM) BRD4(1) [4]

Cc1noc(C)c1-c1cc(N)c(=O)n(Cc2cncc(Cl)c2)c1 [Example 252, 3-amino-1-((5-chloropyridin-3-yl)methyl)-5-(3,5-dimethylisoxazol-4-yl)pyridin-2(1H)-one]
Active: c-myc activity (IC50 <30 μM) [1] | Cell Proliferation activity (IC50 <30 μM) [2] | IL-6 activity (IC50 <30 μM) [3] | FRET activity (IC50 <30 μM) BRD4(1) [4]

Cc1noc(C)c1-c1cc(N)c(=O)n(Cc2cccc3ncccc23)c1 [Example 274, 3-amino-5-(3,5-dimethylisoxazol-4-yl)-1-(quinolin-5-ylmethyl)pyridin-2(1H)-one]
Active: c-myc activity (IC50 <30 μM) [1] | Cell Proliferation activity (IC50 <30 μM) [2] | IL-6 activity (IC50 <30 μM) [3] | FRET activity (IC50 <30 μM) BRD4(1) [4]

COc1cncc(Nc2cc(-c3c(C)noc3C)cn(Cc3ccccc3)c2=O)c1 [Example 231]
Active: c-myc activity (IC50 <30 μM) [1] | Cell Proliferation activity (IC50 <30 μM) [2] | IL-6 activity (IC50 <30 μM) [3] | FRET activity (IC50 <30 μM) BRD4(1) [4]

Cc1noc(C)c1-c1cc(N)c(=O)n(Cc2ccc(Br)c(C#N)c2)c1 [Example 272, 5-((3-amino-5-(3,5-dimethylisoxazol-4-yl)-2-oxopyridin-1(2H)-yl)methyl)-2-bromobenzonitrile]
Active: c-myc activity (IC50 <30 μM) [1] | Cell Proliferation activity (IC50 <30 μM) [2] | IL-6 activity (IC50 <30 μM) [3] | FRET activity (IC50 <30 μM) BRD4(1) [4]

Cc1noc(C)c1-c1cc(N)c(=O)n(Cc2ccc3c(c2)OCO3)c1 [Example 256, 3-amino-1-(benzo[d][1,3]dioxol-5-ylmethyl)-5-(3,5-dimethylisoxazol-4-yl)pyridin-2(1H)-one]
Active: c-myc activity (IC50 <30 μM) [1] | Cell Proliferation activity (IC50 <30 μM) [2] | IL-6 activity (IC50 <30 μM) [3] | FRET activity (IC50 <30 μM) BRD4(1) [4]

COCc1noc(C)c1-c1ccc(=O)n(Cc2ccccc2)c1 [Example 187, 1-benzyl-5-(3-(methoxymethyl)-5-methylisoxazol-4-yl)pyridin-2(1H)-one]
Not Active: c-myc activity (IC50 <30 μM) [1] | Cell Proliferation activity (IC50 <30 μM) [2] | IL-6 activity (IC50 <30 μM) [3]
Active: FRET activity (IC50 <30 μM) BRD4(1) [4]

Cc1noc(C)c1-c1cc(N)c(=O)n(C(C)c2ccccc2)c1 (stereo not drawn) [Example 263, 3-amino-5-(3,5-dimethylisoxazol-4-yl)-1-(1-phenylethyl)pyridin-2(1H)-one]
Active: c-myc activity (IC50 <30 μM) [1] | Cell Proliferation activity (IC50 <30 μM) [2] | IL-6 activity (IC50 <30 μM) [3] | FRET activity (IC50 <30 μM) BRD4(1) [4]

Cc1noc(C)c1-c1cc(N)c(=O)n(Cc2ccc(C(C)C)cc2)c1 [Example 242, 3-Amino-5-(3,5-dimethylisoxazol-4-yl)-1-(4-isopropylbenzyl)pyridin-2(1H)-one]
Active: c-myc activity (IC50 <30 μM) [1] | Cell Proliferation activity (IC50 <30 μM) [2] | IL-6 activity (IC50 <30 μM) [3] | FRET activity (IC50 <30 μM) BRD4(1) [4]

Cc1noc(C)c1-c1cc(Nc2ccccc2)c(=O)n(Cc2ccc(Cl)cc2)c1 [Example 188, 1-(4-chlorobenzyl)-5-(3,5-dimethylisoxazol-4-yl)-3-(phenylamino)pyridin-2(1H)-one]
Active: IL-6 activity (IC50 <30 μM) [3] | FRET activity (IC50 <30 μM) BRD4(1) [4]
Not Active: c-myc activity (IC50 <30 μM) [1] | Cell Proliferation activity (IC50 <30 μM) [2]

Cc1noc(C)c1-c1ccc(=O)n(Cc2cccc(F)c2)n1 [Example 22, 6-(3,5-Dimethylisoxazol-4-yl)-2-(3-fluorobenzyl)pyridazin-3(2H)-one]
Active: FRET activity (IC50 <30 μM) BRD4(1) [4] | FRET activity (IC50 <30 μM) BRD2(2) [5]
Not Active: c-myc activity (IC50 <30 μM) [1] | Cell Proliferation activity (IC50 <30 μM) [2]

Cc1cc(Cn2cc(-c3c(C)noc3C)cc(N)c2=O)c(C)s1 [Example 251, 3-amino-5-(3,5-dimethylisoxazol-4-yl)-1-((2,5-dimethylthiophen-3-yl)methyl)pyridin-2(1H)-one]
Active: c-myc activity (IC50 <30 μM) [1] | Cell Proliferation activity (IC50 <30 μM) [2] | IL-6 activity (IC50 <30 μM) [3] | FRET activity (IC50 <30 μM) BRD4(1) [4]

Cc1noc(C)c1-c1cc(N)c(=O)n(Cc2ccc(I)cc2)c1 [Example 267, 3-amino-5-(3,5-dimethylisoxazol-4-yl)-1-(4-iodobenzyl)pyridin-2(1H)-one]
Active: c-myc activity (IC50 <30 μM) [1] | Cell Proliferation activity (IC50 <30 μM) [2] | IL-6 activity (IC50 <30 μM) [3] | FRET activity (IC50 <30 μM) BRD4(1) [4]

Cc1cc(Cn2cc(-c3c(C)noc3C)cc(N)c2=O)on1 [Example 240, 3-amino-5-(3,5-dimethylisoxazol-4-yl)-1-((3-methylisoxazol-5-yl)methyl)pyridin-2(1H)-one]
Active: c-myc activity (IC50 <30 μM) [1] | Cell Proliferation activity (IC50 <30 μM) [2] | IL-6 activity (IC50 <30 μM) [3] | FRET activity (IC50 <30 μM) BRD4(1) [4]

Cc1noc(C)c1-c1cc(N)c(=O)n(Cc2ccc(C#N)s2)c1 [Example 264, 5-((3-amino-5-(3,5-dimethylisoxazol-4-yl)-2-oxopyridin-1(2H)-yl)methyl)thiophene-2-carbonitrile]
Active: c-myc activity (IC50 <30 μM) [1] | Cell Proliferation activity (IC50 <30 μM) [2] | IL-6 activity (IC50 <30 μM) [3] | FRET activity (IC50 <30 μM) BRD4(1) [4]
